64 molecules from a melting point compilation (Tetko et al.; mined from patent text by program, amines drawn as free bases though some values may be those of a salt) can be followed below.

On to `COc1ccc(Cc2ncc[nH]2)cc1`, for which the melting point is 158 to 160 °C. The same measure for `O=c1c2cc(Oc3ccc(Cl)cc3)ccc2ccn1Cc1cccnc1`: 116 °C. The same measure for `N#Cc1cccc(C=Nc2ccc(F)cc2)c1`: 101 °C.

Regarding `O=C(O)CCCCc1nc(NCc2ccc3c(c2)OCO3)c2cc(Cl)sc2n1`, the melting point was 130 °C. For the molecule `COC(=O)/C=C/COc1cc(-n2ncc(C(F)(F)F)c(C)c2=O)c(F)cc1Cl`, the melting point was found to be 153 °C. The same measure for `CN1CC=C(c2c[nH]c3ccc(NC(=N)c4cccs4)cc23)C(F)C1` (centres undefined): 127 to 129 °C; for `NS(=O)(=O)c1ccc(-n2cc(C(F)(F)F)nc2-c2ccc(-c3cscn3)cc2)cc1F`: 130 to 133 °C. The molecule `NC(=O)Cn1cc(C(=O)c2ccn3c2CSC3c2cccnc2)c2ccc(-c3ccc(F)cc3)cc21` (centres undefined) showed a melting point of 215 to 225 °C. `CC(=O)Oc1c(C)c(C)c2c(c1C)C(c1ccc(F)cc1)C(C)(C)O2` (centres undefined): the melting point fell in the range of 86 to 87 °C. Take `COc1cc(OC)cc(N2CCN(C(=O)N(CC(=O)O)c3cc(C)c(C)cc3OC)CC2)c1`: the melting point was 188 to 189 °C. The molecule `CSc1ccc(N2C(=O)N(CC(=O)Nc3c(C(C)C)cccc3C(C)C)C(=O)C23CCOCC3)cc1` came in with a melting point of 240 °C.

As to `CC1(C)OC(C=Cc2ccoc2)=CC1=O`, the melting point was in the range of 79 to 80 °C. In turn, `CCCc1nn(C)c2c(=O)[nH]c(Cc3ccc(N(CC)CC)cc3)nc12` showed a melting point of 201 to 203 °C. In turn, `Cc1ccc(S(=O)(=O)Oc2ccc(C=O)cc2OS(=O)(=O)c2ccc(C)cc2)cc1` returned a melting point of 95 to 97 °C.

Consider `O=C(O)c1cn(C2CC2)c2cc(F)c(F)c(NCc3ccccc3)c2c1=O`, for which the melting point is 214 to 216 °C. Regarding `O=C1CC2(c3ccccc3)CCCC2C(=O)N1Cc1ccccc1` (centres undefined), the melting point was in the range of 77 to 79 °C.

In the case of `COc1cc(C=C2CCc3c2nc2ccc(Cl)cn2c3=O)cc(OC)c1OC`, the melting point is 222 to 223 °C. Next, `COc1cccc(CC(=O)O)c1OCc1cc(OCc2ccc3ccccc3n2)nn1C(C)C`: 163 to 164 °C; `COc1cccc2sc(C3CCNC(C)C3)cc12` (centres undefined): 70 to 73 °C; `O=C(O)CCCOc1ccc(OCCC(c2ccccc2)(c2ccccc2)c2ccccc2)cc1`: 138 to 139 °C. In turn, `Cc1ccccc1OCC(O)CN1CCC(N2CCCNC2=O)CC1` (centres undefined) had a melting point of 145 to 147 °C. Regarding `COCCN1CCN(CCc2ccc(Nc3ncc4c(n3)-c3ccccc3C(c3ccc(Cl)c(Cl)c3)C4)cc2)CC1` (centres undefined), the melting point lay within 121 to 122 °C. The same measure for `CC(C)CC(NC(=O)C(C)S)C(=O)O` (centres undefined): 77 to 84 °C; for `CC1CC(N)=NN1c1cccc(Cl)n1` (centres undefined): 105 to 107 °C; for `N#CCCc1ccc(OCC2(O)CN3CCC2CC3)cc1` (centres undefined): 92 to 94 °C. `Cc1ncn(-c2nccc3[nH]c(=O)ccc23)c1C` had a melting point of 256 to 258 °C. Next, `N#Cc1ccc2[nH]cc(-c3nc(-c4cccnc4)cs3)c2c1`: 240 °C; `COC(=O)c1c(-c2nccn2C)c2cnc(N3CCC[C@H]3CO)nc2n(Cc2ccc(OC)c(Cl)c2)c1=O`: 142 to 145 °C. `Cn1ncc2[nH]c3ccc(Cc4cccc(C(=O)O)c4)cc3c(=O)c21` yielded a melting point above 300 °C. The same measure for `Nc1nc2c(s1)CC(NC(=O)[C@@H]1CCCN1C(=O)CNC(c1ccccc1)(c1ccccc1)c1ccccc1)CC2` (some centres undefined): 125 to 128 °C; for `CCOC(=O)c1cc2c3ccccc3n(Cc3ccccc3)c2nc1N1CCCCC1`: 155 to 156 °C; for `Nc1ccc(NC(=O)N(C[C@H]2CC[C@H](CN(C(=O)Nc3ccc(N)cc3)C3CCCCC3)CC2)C2CCCCC2)cc1`: 185 to 188 °C. Next, `Cc1noc(NS(=O)(=O)c2ccccc2-c2ccc(-n3cccn3)cc2)c1C`: 88 to 98 °C; `C[C@H]1CC[C@H]2C(C)(C)[C@@H](O)CC[C@]23Oc2c(c(O)cc4c2CN(S(=O)(=O)c2ccccc2)C4)C[C@]13C`: 150 to 153 °C; `COc1cccc2cc(C(=O)c3ccc(Cl)c(N)c3)oc12`: 180 °C.

In turn, `COc1ccc(-c2coc3cc(OCC(O)CN4CCOCC4)ccc3c2=O)cc1OC` (centres undefined) came in with a melting point of 135 to 136 °C. The same measure for `CCOC(=O)CC1(c2ccccc2OCC)C(=O)Nc2ccc(Cl)cc21` (centres undefined): 181 °C; for `O=C1NC2CCCCN2C12CCNCC2` (centres undefined): 193 °C; for `Cc1ccccc1-n1ccc2c(Cl)nc3c(C)cccc3c21`: 135 to 137 °C. Take `CC(=O)c1cccc2ccc(CC#N)cc12`: the melting point turned out to be 88 °C. For `CN(C)S(=O)(=O)c1ccc2c3c(cccc13)C(NCCCn1ccnc1)=N2`, the melting point was 199 to 201 °C. Next, `CCOC(=O)CCCCCBr`: 34.5 to 36 °C; `Cc1ccc(C2(O)CCC(=O)N2C)cc1S(N)(=O)=O` (centres undefined): 124 °C. Take `CC(=O)c1c(C)[nH]c(C(C)C)c1C`: the melting point was in the range of 166 to 167 °C. Next, `Cc1ccccc1N1CCN(S(=O)(=O)CC23CCC(CC2=NO)C3(C)C)CC1` (centres undefined): 174 to 175 °C.

Turning to `CCOCOC1(C(=O)COC(C)=O)C(C)CC2C3CC(C)C4=CC(=O)C=CC4(C)C3C(O)CC21C` (centres undefined), the melting point fell in the range of 137 to 139 °C. Molecule `CC12CCC(=O)C=C1CC(O)C1C2CCC2(C)C(O)CCC12` (centres undefined) registered a melting point of 191 to 193 °C.

With `CCC1c2ncn(C)c2CCN1C(=S)NC(C)C` (centres undefined), the melting point came out at 186 °C. The same measure for `Cc1cc(C)c(Nc2nc(C)ncc2S(=O)(=O)c2ccc(-n3ccnc3)cc2)c(C)c1`: 230 to 232 °C; for `CCCCCCC#CC(O)C1=Nc2ccccc2C(=O)C1C` (centres undefined): 148 to 149 °C; for `C=CCONC(=O)c1nc(-c2ccc(Cl)c(OC)c2F)c(F)c(N)c1Cl`: 184 to 186 °C. `COc1ccc(C(=O)Nc2ccccc2)cc1NC(=S)Nc1cccc(C(C)=O)c1`: the melting point fell in the range of 176 to 177 °C.

`COC(=O)CCCCCCn1[nH]c(=O)n(C)c1=O` had a melting point of 80 to 81 °C. `Cc1cc(C#N)cc(Oc2[nH]c(=O)[nH]c(=O)c2C(C)C)c1` displayed a melting point of 272 to 275 °C. The same measure for `CC1=CCN(C)C2C1N2C#N` (centres undefined): 117 °C; for `O=[N+]([O-])c1ccc2c(c1)CCNCC2`: 53 to 56 °C. Next, `CN(C)c1cccc2c1c(=O)n(C)c1c(-c3noc(C4CC4)n3)ncn21`: 170 to 171 °C. Next, `COc1ccc(C2=NN(CCCCCCN3C(=O)c4ccccc4C3=O)C(=O)[C@H]3CC=CC[C@@H]23)cc1OC` (relative stereo): 104 to 105 °C; `CCOC(=O)c1nccn1C1Sc2ccccc2C1=O` (centres undefined): 174 °C. As to `CONS(=O)(=O)c1ccc(Cl)c([N+](=O)[O-])c1`, the melting point lay in the range of 69.5 to 71 °C.

Take `O=C(OCCCl)c1cccc(O)c1`: the melting point was found to be 50 °C. Molecule `N#CC1(C(O)(Cn2cncn2)c2ccccc2)CC1` (centres undefined) gave a melting point of 103 to 105 °C. `Cc1c(N2CC(F)C(CN)C2)c(F)cc2c(=O)n(N)c(=O)n(C3CC3)c12` (centres undefined) returned a melting point of 170 to 172 °C.

`COc1ccc(Oc2c(C)cc(O)cc2C)cc1C(C)C` came in with a melting point of 60 to 64 °C.
